Results taken from PMC6129194 (Bioorganic & medicinal chemistry, 2018).

Tests used:
MDCK-mdr1 cells = assay: MDCK-mdr1 monolayer permeability assay; settings: % transported apical to basal; 10 μM, 1 h, 37 °C, pH 7.4
[1] = cited from earlier work
[2] = cited from earlier work; remark: listed apart in the source

SMILES: N=C(Nc1ccc(F)cc1)N1CCN(c2ncnc3c2nc(-c2ccccc2Cl)n3-c2ccc(Cl)cc2)CC1 [compound 28, 4-[8-(2-Chlorophenyl)-9-(4-chlorophenyl)-9H-purin-6-yl]-N-(4-fluorophenyl)piperazine-1-carboximidamide]
- MDCK-mdr1 A to B (MDCK-mdr1 cells): < 1%

SMILES: CN1CCN(c2ncnc3c2nc(-c2ccccc2Cl)n3-c2ccc(Cl)cc2)CC1 [compound 5]
- solubility in acidic media [1]: good
- human liver microsome stability [2]: good

SMILES: CC(C)CS(=O)(=O)N1CCN(c2ncnc3c2nc(-c2ccccc2Cl)n3-c2ccc(Cl)cc2)CC1 [compound 15, 8-(2-Chlorophenyl)-9-(4-chlorophenyl)-6-{4-[(2-methylpropyl)sulfonyl]piperazin-1-yl}-9H-purine]
- MDCK-mdr1 A to B (MDCK-mdr1 cells): < 1%

SMILES: O=C(OCC1CCC1)N1CCN(c2ncnc3c2nc(-c2ccccc2Cl)n3-c2ccc(Cl)cc2)CC1 [compound 26, Cyclobutylmethyl 4-[8-(2-Chlorophenyl)-9-(4-chlorophenyl)-9H-purin-6-yl]piperazine-1-carboxylate]
- MDCK-mdr1 A to B (MDCK-mdr1 cells): < 1%
